Laboratory results as given in paper PMC3280264 (PLoS ONE, 2012).

Biological target: T1, Human SGLT3 (Homo sapiens, UniProt Q9NY91)
T1 construct: expressed in transfected cells; host or cells: oocytes (from Nasco), injected with mRNA
T1 sequence (Q9NY91 1-659): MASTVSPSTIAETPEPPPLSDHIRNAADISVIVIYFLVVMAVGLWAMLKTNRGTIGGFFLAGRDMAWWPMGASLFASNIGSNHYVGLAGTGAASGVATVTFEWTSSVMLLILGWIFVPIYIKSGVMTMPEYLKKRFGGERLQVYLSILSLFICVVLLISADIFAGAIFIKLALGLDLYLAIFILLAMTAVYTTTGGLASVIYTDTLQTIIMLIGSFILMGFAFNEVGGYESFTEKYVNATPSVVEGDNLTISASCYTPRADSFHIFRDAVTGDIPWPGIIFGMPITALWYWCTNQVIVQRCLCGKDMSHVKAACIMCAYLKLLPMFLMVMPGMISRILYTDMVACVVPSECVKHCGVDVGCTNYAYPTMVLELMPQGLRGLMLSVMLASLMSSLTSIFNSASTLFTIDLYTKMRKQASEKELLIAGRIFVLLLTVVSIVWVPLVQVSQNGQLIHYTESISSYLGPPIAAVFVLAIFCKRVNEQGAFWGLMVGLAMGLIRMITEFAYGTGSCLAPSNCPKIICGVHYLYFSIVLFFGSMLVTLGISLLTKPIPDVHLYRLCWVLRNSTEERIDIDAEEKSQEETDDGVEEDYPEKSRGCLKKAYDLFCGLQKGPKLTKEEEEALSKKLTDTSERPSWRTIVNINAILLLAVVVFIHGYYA
Assay: Two-electrode voltage clamp recording of oocytes expressing human SGLT3 (DNJ-induced currents)
Type: cell-based
Settings: 3 mM
Description: Oocytes were obtained from Nasco (Fort Atkinson, Wisconsin, USA). Stage V–VI oocytes were injected with 50 nl of either human SGLT3 mRNA (at 1 ng/nl) or distilled water (control) and incubated at 18°C in a calcium-free solution (92 mM NaCl, 2 mM KCl, 1 mM MgCl2, 5 mM HEPES, 0.05 mg/ml gentamicin at pH 7.5) for 4–6 days before recording. The extracellular recording solution contained 92 mM NaCl, 2 mM KCl, 1.8 mM CaCl2, 1 mM MgCl2, and 5 mM HEPES at pH 7.5. Injected oocytes were impaled with 2 microelectrodes filled with 3 M KCl (resistance of ∼0.5–3 MΩ) and voltage clamped to −120 mV, at which continuous recordings were made (filtered at 5 kHz and sampled at 625 Hz). To establish the baseline in the absence of agonist, oocytes were first perfused for 85 seconds with a control buffer (92 mM NaCl, 2 mM KCl, 1.8 mM CaCl2, 1 mM MgCl2, 5 mM HEPES at pH 7.5). […] Finally, phlorizin (3 mM) was applied in the presence of 50 µM DNJ for 160 seconds. All experiments were performed at 22°C. Currents in the presence of 50 µM DNJ were subtracted from leak currents (currents in control buffer alone) to obtain DNJ-induced currents (IDNJ). Effects of compounds were calculated as: % Inhibition = 100×(IDNJ−Icmpd)/IDNJ, where Icmpd is the DNJ-induced and leak-subtracted current in the presence of a compound or DMSO. Due to lack of effect at the highest dose tested, a dose-response relationship was not examined.

O=C(CCc1ccc(O)cc1)c1c(O)cc(O)cc1O[C@@H]1O[C@H](CO)[C@@H](O)[C@H](O)[C@H]1O [phlorizin, reference compound]
inhibition at 3000 µM (SGLT3-injected oocytes, 50 µM DNJ, n = 14, P<0.05): 73.5 ± 4.2%
effect on currents in sham-injected oocytes (sham (water)-injected oocytes, in the presence of 50 µM DNJ): did not affect currents
